Results reported in US20230203098A1, “HUMAN TRANSFERRIN RECEPTOR BINDING PEPTIDE” (priority 2020, published 2023).
Like-named read-outs stand apart in the source and are kept apart here. Values belong to the compound of their own block, whether it stands above or below them. Where a SMILES comes first, the peptide text is derived from it. Bridges are numbered along the chain shown (N, C = ends). [ ]: non-standard residue; d: D form. Trp(1-CH2COOH) = N[C@@H](Cc1cn(CC(=O)O)c2ccccc12)C(=O)O; NMePhe(3-Cl) = CN[C@@H](Cc1cccc(Cl)c1)C(=O)O; NMeW = CN[C@@H](Cc1c[nH]c2ccccc12)C(=O)O; NMeY = CN[C@@H](Cc1ccc(O)cc1)C(=O)O; NMeF = CN[C@@H](Cc1ccccc1)C(=O)O; PEG4 = NCCOCCOCCOCCOCCC(=O)O; hLys = NCCCCC[C@H](N)C(=O)O

Biological target: transferrin receptor (hTfR) (Homo sapiens, UniProt P02786)
Sequence (P02786 whole entry): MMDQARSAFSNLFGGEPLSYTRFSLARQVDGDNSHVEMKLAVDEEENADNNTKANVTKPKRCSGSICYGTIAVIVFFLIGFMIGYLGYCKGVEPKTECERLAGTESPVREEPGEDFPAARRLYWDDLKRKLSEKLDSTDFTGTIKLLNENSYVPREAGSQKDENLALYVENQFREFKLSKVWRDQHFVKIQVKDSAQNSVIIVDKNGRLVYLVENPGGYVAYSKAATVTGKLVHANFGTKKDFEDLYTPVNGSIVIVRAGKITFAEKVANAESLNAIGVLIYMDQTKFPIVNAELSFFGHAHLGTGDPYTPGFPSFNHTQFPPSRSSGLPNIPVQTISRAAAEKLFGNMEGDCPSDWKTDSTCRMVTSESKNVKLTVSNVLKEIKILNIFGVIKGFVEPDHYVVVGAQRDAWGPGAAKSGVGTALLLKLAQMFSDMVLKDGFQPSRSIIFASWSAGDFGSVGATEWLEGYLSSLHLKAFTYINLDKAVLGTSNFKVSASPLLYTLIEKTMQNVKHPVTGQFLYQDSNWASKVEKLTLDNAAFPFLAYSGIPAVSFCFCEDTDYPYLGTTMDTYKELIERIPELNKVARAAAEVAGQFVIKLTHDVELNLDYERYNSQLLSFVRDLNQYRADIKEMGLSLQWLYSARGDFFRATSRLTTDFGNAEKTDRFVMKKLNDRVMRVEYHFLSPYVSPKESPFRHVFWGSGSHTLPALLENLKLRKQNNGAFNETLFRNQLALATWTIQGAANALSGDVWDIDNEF
Test: Intermolecular interaction evaluation test between transferrin receptor (hTfR) and peptide by surface plasmon resonance (SPR)
Type: binding
How it was run: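 Receptor was Ni-captured and EDC/NHS-fixed on an NTA chip; running buffer HEPES pH 8.0 with NaCl, Tween 20, BSA and 1.0% DMSO.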

[1] = surface plasmon resonance, peptide vs hTfR, read-out: KD value for hTfR by SPR (class symbol)

- Kd (SPR, hTfR, class symbols A-D, read-out: KD): 100 to 1000 nM
Compound: CC[C@H](C)[C@@H]1NC(=O)[C@H](Cc2ccc(O)cc2)NC(=O)[C@H](Cc2ccc(O)cc2)NC(=O)[C@H](CC(N)=O)NC(=O)[C@H](Cc2cn(CC(=O)O)c3ccccc23)NC(=O)[C@H](C(C)C)NC(=O)[C@H](Cc2ccccc2)N(C)C(=O)[C@H](C(C)C)NC(=O)[C@H](C)NC(=O)CSC[C@@H](C(=O)N[C@H](CCC(=O)O)C(N)=O)NC(=O)[C@H](Cc2ccc(O)cc2)N(C)C(=O)[C@H](Cc2ccc(O)cc2)NC(=O)[C@@H](CCCNC(=N)N)NC(=O)[C@H](CCCNC(=N)N)NC(=O)[C@H](CCC(=O)O)NC1=O [compound 473] ({CH2CO}-AV[NMeF]V[Trp(1-CH2COOH)]NYYIER[dR]Y[NMeY]C[dE]-NH2; thioether N-15)

- Kd (surface plasmon resonance, peptide vs hTfR, read-out: KD value, hTfR binding by SPR (class symbol)): 1 to 100 nM
Compound: CC[C@H](C)[C@@H]1NC(=O)[C@H](Cc2ccc(OC)cc2)NC(=O)[C@H](Cc2ccc(O)cc2)NC(=O)[C@H](CC(N)=O)NC(=O)[C@H](Cc2c[nH]c3ccccc23)N(C)C(=O)[C@H](C(C)C)NC(=O)[C@H](Cc2cccc(Cl)c2)N(C)C(=O)[C@H](C(C)C)NC(=O)[C@H](C)NC(=O)CSC[C@@H](C(=O)NCCOCCOCCOCCOCCC(N)=O)NC(=O)[C@H](Cc2ccc(O)cc2)N(C)C(=O)[C@H](Cc2ccccc2)NC(=O)[C@@H](CCCNC(=N)N)NC(=O)[C@H](CCCNC(=N)N)NC(=O)[C@H](CCCCCN)NC1=O [compound 339] ({CH2CO}-AV[NMePhe(3-Cl)]V[NMeW]NYY(Me)I[hLys]R[dR]F[NMeY]C[PEG4]-NH2; thioether N-15)

- Kd [1]: 1 to 100 nM
Compound: CC[C@H](C)[C@@H]1NC(=O)[C@H](Cc2ccc(O)cc2)NC(=O)[C@H](Cc2ccc(O)cc2)NC(=O)[C@H](CC(N)=O)NC(=O)[C@H](Cc2c[nH]c3ccccc23)N(C)C(=O)[C@H](C(C)C)NC(=O)[C@H](Cc2cccc(Cl)c2)N(C)C(=O)[C@@H]2CCC(=O)NCC(=O)NCCCC[C@H](NC(=O)[C@H]([C@@H](C)CC)NC1=O)C(=O)N[C@@H](CCCNC(=N)N)C(=O)N[C@@H](Cc1ccc(O)cc1)C(=O)N(C)[C@@H](Cc1ccc(O)cc1)C(=O)N[C@H](C(N)=O)CSCC(=O)N[C@@H](C)C(=O)N2 [compound 417]

Compound: CC[C@H](C)[C@@H]1NC(=O)[C@H](Cc2ccc(O)cc2)NC(=O)[C@H](Cc2ccc(O)cc2)NC(=O)[C@H](CC(N)=O)NC(=O)[C@H](Cc2c[nH]c3ccccc23)N(C)C(=O)[C@H](C(C)C)NC(=O)[C@H](Cc2ccccc2)N(C)C(=O)[C@H](C(C)C)NC(=O)[C@H](C)NC(=O)CSC[C@@H](C(=O)NCCOCCOCCOCCOCCOCCOCCOCCOCCC(=O)N[C@@H](CCCCNC(=O)C2CCC(CN3C(=O)C=CC3=O)CC2)C(N)=O)NC(=O)[C@H](Cc2ccc(O)cc2)N(C)C(=O)[C@H](Cc2ccc(O)cc2)NC(=O)[C@H](CCCNC(=N)N)NC(=O)[C@H](CCCNC(=N)N)NC(=O)[C@H]([C@@H](C)CC)NC1=O (some centres unmarked) [compound 185]
- Kd (hTfR binding by SPR, hTfR No. 894 variant peptides, linker-added peptides and payload conjugates (Table 2), read-out: KD value obtained from the SPR measurement): 1 to 100 nM

- Kd [1]: 100 to 1000 nM
Compound: CC[C@H](C)[C@@H]1NC(=O)[C@@H]2CCCCNC(=O)[C@H]3CCCN3C(=O)CC[C@H](NC(=O)[C@H](C(C)C)NC(=O)[C@H](C)NC(=O)CSC[C@@H](C(N)=O)NC(=O)[C@H](Cc3ccc(O)cc3)N(C)C(=O)[C@H](Cc3ccc(O)cc3)NC(=O)[C@H](CCCNC(=N)N)NC(=O)[C@H](CCCNC(=N)N)NC(=O)[C@H]([C@@H](C)CC)NC1=O)C(=O)N[C@@H](C(C)C)C(=O)N(C)[C@@H](Cc1c[nH]c3ccccc13)C(=O)N[C@@H](CC(N)=O)C(=O)N[C@@H](Cc1ccc(O)cc1)C(=O)N2 [compound 413] ({CH2CO}-AVEV[NMeW]NYKIIRRY[NMeY]C-NH2; linker 3-8 via dP; thioether N-15)
